Measurements published in ChEMBL document CHEMBL1909046, “DrugMatrix in vitro pharmacology data”.

Experiments:
Melanocortin receptor 5 = Melanocortin receptor 5 (Homo sapiens, UniProt P33032); type: cell membranes, HEK293, Membrane; also: in other assays of this panel Not Active means under 50% inhibition at 10 µM
[1] = target: T1, Amine oxidase [flavin-containing] A (Homo sapiens, UniProt P21397); experiment: DRUGMATRIX: Monoamine Oxidase MAO-A enzyme inhibition (substrate: Kynuramine); set-up: species or system BTI-TN-5B1-4; settings: Not Active = under 50% inhibition at 10 µM
T1 sequence (P21397 whole entry): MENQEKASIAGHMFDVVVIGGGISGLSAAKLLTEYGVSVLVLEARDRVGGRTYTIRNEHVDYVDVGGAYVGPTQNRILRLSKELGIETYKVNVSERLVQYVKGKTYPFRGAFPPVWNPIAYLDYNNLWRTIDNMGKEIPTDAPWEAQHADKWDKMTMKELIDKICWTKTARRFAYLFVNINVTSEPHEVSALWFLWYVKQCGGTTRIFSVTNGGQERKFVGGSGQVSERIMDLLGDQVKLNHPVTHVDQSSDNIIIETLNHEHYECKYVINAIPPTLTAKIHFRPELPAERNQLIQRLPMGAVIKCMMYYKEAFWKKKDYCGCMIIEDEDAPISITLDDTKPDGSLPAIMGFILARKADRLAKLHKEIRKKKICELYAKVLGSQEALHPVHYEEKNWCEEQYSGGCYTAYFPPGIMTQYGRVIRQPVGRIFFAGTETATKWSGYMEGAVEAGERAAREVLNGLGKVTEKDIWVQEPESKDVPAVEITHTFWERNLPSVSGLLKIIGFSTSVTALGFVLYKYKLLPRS

[2] = target: T2, Muscarinic acetylcholine receptor M2 (Homo sapiens, UniProt P08172); type: cell membranes, CHO-K1, Membrane; also: in other assays of this panel Not Active means under 50% inhibition at 10 µM
T2 sequence (P08172 whole entry): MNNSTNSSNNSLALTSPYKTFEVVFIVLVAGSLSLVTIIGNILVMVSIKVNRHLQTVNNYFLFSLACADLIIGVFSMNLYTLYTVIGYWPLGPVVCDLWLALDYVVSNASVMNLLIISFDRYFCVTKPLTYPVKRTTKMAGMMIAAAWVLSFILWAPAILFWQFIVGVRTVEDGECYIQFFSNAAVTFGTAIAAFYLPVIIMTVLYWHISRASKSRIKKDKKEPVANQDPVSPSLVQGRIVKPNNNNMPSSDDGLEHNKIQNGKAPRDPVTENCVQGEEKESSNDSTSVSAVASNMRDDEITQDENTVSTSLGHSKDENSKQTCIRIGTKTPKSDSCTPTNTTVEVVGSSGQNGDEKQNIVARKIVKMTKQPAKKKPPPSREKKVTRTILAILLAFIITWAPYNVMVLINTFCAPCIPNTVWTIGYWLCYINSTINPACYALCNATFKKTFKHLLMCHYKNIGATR

[3] = DRUGMATRIX: Platelet-Derived Growth Factor (PDGF) radioligand binding (ligand: [125I] PDGF); type: cell-based; settings: nih3t3; Not Active = under 50% inhibition at 10 µM
Adenosine receptor A3 = target: T3, Adenosine receptor A3 (Homo sapiens, UniProt P0DMS8); type: cell membranes, CHO-K1, Membrane;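 also: radioligand binding assay with AB-MECA serving as the labeled ligand; in other assays of this panel Not Active means under 50% inhibition at 10 µM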
T3 sequence (P0DMS8 whole entry): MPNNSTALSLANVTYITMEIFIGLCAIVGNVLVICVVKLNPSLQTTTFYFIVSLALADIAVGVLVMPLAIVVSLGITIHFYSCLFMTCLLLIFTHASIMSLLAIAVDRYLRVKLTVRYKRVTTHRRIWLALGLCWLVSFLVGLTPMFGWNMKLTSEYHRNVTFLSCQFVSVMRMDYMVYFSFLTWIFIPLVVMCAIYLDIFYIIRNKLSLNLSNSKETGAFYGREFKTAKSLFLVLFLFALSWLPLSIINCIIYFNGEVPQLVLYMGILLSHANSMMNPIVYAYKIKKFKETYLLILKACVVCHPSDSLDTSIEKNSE

Cytochrome P450 1A2 = target: T4, Cytochrome P450 1A2 (Homo sapiens, UniProt P05177); settings: bti-tn-5b1-4; also: in other assays of this panel Not Active means under 50% inhibition at 10 µM
T4 sequence (P05177 whole entry): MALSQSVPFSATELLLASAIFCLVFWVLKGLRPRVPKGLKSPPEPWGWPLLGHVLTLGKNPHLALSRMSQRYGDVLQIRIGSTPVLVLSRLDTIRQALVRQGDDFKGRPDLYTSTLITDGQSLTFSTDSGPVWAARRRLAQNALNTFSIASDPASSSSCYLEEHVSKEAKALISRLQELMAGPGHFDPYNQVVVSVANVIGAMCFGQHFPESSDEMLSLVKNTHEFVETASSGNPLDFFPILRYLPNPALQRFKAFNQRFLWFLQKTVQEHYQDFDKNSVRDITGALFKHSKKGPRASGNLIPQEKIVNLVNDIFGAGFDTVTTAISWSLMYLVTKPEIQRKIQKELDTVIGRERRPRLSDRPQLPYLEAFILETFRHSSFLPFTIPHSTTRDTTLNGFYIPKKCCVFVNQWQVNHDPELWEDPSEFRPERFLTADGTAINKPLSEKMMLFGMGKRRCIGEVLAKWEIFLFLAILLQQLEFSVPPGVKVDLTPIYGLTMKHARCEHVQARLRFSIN

Chain of Melanocortin receptor 5 (P33032 whole entry): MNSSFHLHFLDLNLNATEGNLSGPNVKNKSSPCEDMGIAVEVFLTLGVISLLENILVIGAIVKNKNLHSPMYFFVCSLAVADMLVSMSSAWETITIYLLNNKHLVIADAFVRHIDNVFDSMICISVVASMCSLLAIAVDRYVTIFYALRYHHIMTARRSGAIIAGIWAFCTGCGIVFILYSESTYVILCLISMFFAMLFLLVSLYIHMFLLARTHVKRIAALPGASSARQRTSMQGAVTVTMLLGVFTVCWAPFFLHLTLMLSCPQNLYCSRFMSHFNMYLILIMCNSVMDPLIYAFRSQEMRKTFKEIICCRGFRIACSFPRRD

Compound	IC50 (Melanocortin receptor 5; hek293)	IC50 ([1]; bti-tn-5b1-4)	IC50 ([2]; cho-k1)	IC50 [3]	Ki [3]	IC50 (Adenosine receptor A3; cho-k1)	IC50 (Cytochrome P450 1A2)	Ki (Cytochrome P450 1A2)	IC50 (Adenosine receptor A3; read-out: IC50) [µM]	Ki (Adenosine receptor A3; read-out: Ki) [µM]	IC50 (Melanocortin receptor 5; read-out: IC50) [µM]	Ki (Melanocortin receptor 5; read-out: Ki) [µM]	IC50 ([2]; read-out: IC50) [µM]	Ki ([2]; read-out: Ki) [µM]	Ki (Melanocortin receptor 5; hek293)	Ki ([1]; bti-tn-5b1-4)	Ki ([2]; cho-k1)	Ki (Adenosine receptor A3; cho-k1)	IC50 ([1]; read-out: IC50) [µM]
O=C(Oc1ccccc1C(=O)O)c1ccccc1O [SALSALATE]	Not Active	Not Active	Not Active	Not Active	Not Active	Not Active	Not Active	Not Active	–	–	–	–	–	–	–	–	–	–	–
CNC1(c2ccccc2Cl)CCCCC1=O (stereo not drawn) [KETAMINE]	Not Active	Not Active	Not Active	Not Active	Not Active	Not Active	Not Active	Not Active	–	–	–	–	–	–	–	–	–	–	–
Fc1ccc(C(c2ccc(F)cc2)N2CCN(C/C=C/c3ccccc3)CC2)cc1 [FLUNARIZINE]	Not Active	Not Active	Not Active	–	–	–	Not Active	Not Active	5.2	2.94	–	–	–	–	–	–	–	–	–
CN[C@H]1CC[C@@H](c2ccc(Cl)c(Cl)c2)c2ccccc21 [SERTRALINE]	–	Not Active	–	–	–	Not Active	Not Active	Not Active	–	–	4.6	4.31	2.77	0.984	–	–	–	–	–
O=C(Nc1ccc(Br)cc1)c1cc(Br)cc(Br)c1O [TRIBROMSALAN]	Not Active	Not Active	Not Active	Not Active	Not Active	Not Active	–	–	–	–	–	–	–	–	–	–	–	–	–
CC(C)NCC(O)c1ccc(O)c(O)c1 (stereo not drawn) [ISOPROTERENOL]	Not Active	Not Active	Not Active	Not Active	Not Active	Not Active	Not Active	Not Active	–	–	–	–	–	–	–	–	–	–	–
Cc1cccc(C)c1OCC(C)N (stereo not drawn) [MEXILETINE]	Not Active	Not Active	Not Active	Not Active	Not Active	Not Active	Not Active	Not Active	–	–	–	–	–	–	–	–	–	–	–
MANGANESE CHLORIDE ANHYDROUS	Not Active	Not Active	Not Active	Not Active	Not Active	Not Active	Not Active	Not Active	–	–	–	–	–	–	Not Active	Not Active	Not Active	Not Active	–
CCN(CC)CCNC(=O)c1cc(S(C)(=O)=O)ccc1OC [TIAPRIDE]	Not Active	Not Active	Not Active	Not Active	Not Active	Not Active	Not Active	Not Active	–	–	–	–	–	–	–	–	–	–	–
Clc1ccc(COC(Cn2ccnc2)c2ccc(Cl)cc2Cl)cc1 (stereo not drawn) [ECONAZOLE]	–	Not Active	–	–	–	–	–	–	–	–	39.5	37.1	–	–	–	–	–	–	–
COc1c2occc2cc2ccc(=O)oc12 [METHOXSALEN]	Not Active	Not Active	Not Active	Not Active	Not Active	Not Active	–	–	–	–	–	–	–	–	–	–	–	–	–
O.O.O.O.O.O.[Cl-].[Cl-].[Sr+2] [STRONTIUM CHLORIDE HEXAHYDRATE]	Not Active	Not Active	Not Active	Not Active	Not Active	Not Active	Not Active	Not Active	–	–	–	–	–	–	–	–	–	–	–
COc1ccc(CCN(C)CCCC(C#N)(c2ccc(OC)c(OC)c2)C(C)C)cc1OC (stereo not drawn)	Not Active	Not Active	Not Active	Not Active	Not Active	Not Active	Not Active	Not Active	–	–	–	–	–	–	–	–	–	–	–
CCN(CC)CCOc1ccc(/C(=C(/Cl)c2ccccc2)c2ccccc2)cc1 [ENCLOMIPHENE]	Not Active	Not Active	–	–	–	–	Not Active	Not Active	–	–	–	–	–	–	–	–	–	–	–
Clc1ccccc1CN1CCc2sccc2C1 [TICLOPIDINE]	Not Active	Not Active	Not Active	Not Active	Not Active	Not Active	Not Active	Not Active	–	–	–	–	–	–	–	–	–	–	–
CC(C)Oc1ccc2c(=O)c(-c3ccccc3)coc2c1 [IPRIFLAVONE]	Not Active	Not Active	Not Active	Not Active	Not Active	Not Active	Not Active	Not Active	–	–	–	–	–	–	–	–	–	–	–
COc1cc2nc(N3CCN(C(=O)C4CCCO4)CC3)nc(N)c2cc1OC (stereo not drawn) [TERAZOSIN]	Not Active	Not Active	Not Active	Not Active	Not Active	Not Active	Not Active	Not Active	–	–	–	–	–	–	–	–	–	–	–
C[C@H]1C[C@@H]2[C@H]([C@@H](O)C[C@@]3(C)[C@H]2CC[C@]3(O)C(=O)CO)[C@@]2(C)C=CC(=O)C=C12 [METHYLPREDNISOLONE]	Not Active	Not Active	Not Active	Not Active	Not Active	Not Active	Not Active	Not Active	–	–	–	–	–	–	–	–	–	–	–
NC1CCN(c2nc3c(cc2F)c(=O)c(C(=O)O)cn3-c2ccc(F)cc2F)C1 (stereo not drawn) [TOSUFLOXACIN]	Not Active	Not Active	Not Active	Not Active	Not Active	Not Active	Not Active	Not Active	–	–	–	–	–	–	–	–	–	–	–
Cc1c(C)c2c(c(C)c1O)CCC(C)(CN1CCN(c3cc(N4CCCC4)nc(N4CCCC4)n3)CC1)O2 (stereo not drawn)	Not Active	Not Active	Not Active	Not Active	Not Active	–	–	–	10.8	6.08	–	–	–	–	–	–	–	–	–
CN(C)CCOC(c1ccccc1)c1ccccc1 [DIPHENHYDRAMINE]	Not Active	Not Active	–	–	–	Not Active	–	–	–	–	–	–	–	–	–	–	–	–	–
CCN(CC)CC(=O)Nc1c(C)cccc1C [LIDOCAINE]	Not Active	Not Active	Not Active	Not Active	Not Active	Not Active	–	–	–	–	–	–	–	–	–	–	–	–	–
CCCCNc1ccc(C(=O)OCCN(C)C)cc1 [TETRACAINE]	Not Active	–	Not Active	Not Active	Not Active	Not Active	–	–	–	–	–	–	–	–	–	–	–	–	0.317
CNCCC(Oc1ccc(C(F)(F)F)cc1)c1ccccc1 (stereo not drawn) [FLUOXETINE]	Not Active	Not Active	Not Active	–	–	Not Active	Not Active	Not Active	–	–	–	–	–	–	–	–	–	–	–
Cc1ccc(NC(=O)c2ccc(CN3CCN(C)CC3)cc2)cc1Nc1nccc(-c2cccnc2)n1 [IMATINIB]	Not Active	Not Active	Not Active	–	–	Not Active	Not Active	Not Active	–	–	–	–	–	–	–	–	–	–	–
NC(=O)N1C(=O)/C(=C(\O)c2cccs2)c2cc(Cl)ccc21 [TENIDAP]	Not Active	Not Active	Not Active	Not Active	Not Active	Not Active	–	–	–	–	–	–	–	–	–	–	–	–	–
N#Cc1ccc(C(c2ccc(C#N)cc2)n2cncn2)cc1 [LETROZOLE]	Not Active	Not Active	Not Active	Not Active	Not Active	Not Active	–	–	–	–	–	–	–	–	–	–	–	–	–
